# Source: PubChem BioAssay (NCI)
#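 Five concentrations, 48 hours, 96-well plates. GI50: concentration for 50% inhibition of growth. TGI marks complete inhibition of growth.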
# Experiments:
# Test in all cases: DTP human tumour cell line panel, 48 h
# TK-10 renal = tested on: TK-10 renal
# UACC-257 melanoma = tested on: UACC-257 melanoma
# CAKI-1 renal = tested on: CAKI-1 renal
# NCI-H226 lung = tested on: NCI-H226 lung
# T-47D breast = tested on: T-47D breast
# OVCAR-4 ovarian = tested on: OVCAR-4 ovarian
# MOLT-4 leukemia = tested on: MOLT-4 leukemia
# BT-549 breast = tested on: BT-549 breast
# 786-0 renal = tested on: 786-0 renal
# M14 melanoma = tested on: M14 melanoma
# NCI/ADR-RES ovarian = tested on: NCI/ADR-RES ovarian
# A498 renal = tested on: A498 renal
# UACC-62 melanoma = tested on: UACC-62 melanoma
# SR leukemia = tested on: SR leukemia
# COLO 205 colon = tested on: COLO 205 colon
# HS 578T breast = tested on: HS 578T breast
# SF-539 CNS = tested on: SF-539 CNS
# SF-268 CNS = tested on: SF-268 CNS
# NCI-H522 lung = tested on: NCI-H522 lung
# SN12C renal = tested on: SN12C renal
# SNB-19 CNS = tested on: SNB-19 CNS
# HCC-2998 colon = tested on: HCC-2998 colon
# SF-295 CNS = tested on: SF-295 CNS
# SK-OV-3 ovarian = tested on: SK-OV-3 ovarian
# DU-145 prostate = tested on: DU-145 prostate
# NCI-H460 lung = tested on: NCI-H460 lung
# HOP-62 NSCLC = tested on: HOP-62 NSCLC
# CCRF-CEM leukemia = tested on: CCRF-CEM leukemia
# UO-31 renal = tested on: UO-31 renal
# MDA-MB-435 = tested on: MDA-MB-435
# LOX IMVI melanoma = tested on: LOX IMVI melanoma
# NCI-H23 lung = tested on: NCI-H23 lung
# ACHN renal = tested on: ACHN renal
# OVCAR-3 ovarian = tested on: OVCAR-3 ovarian
# SK-MEL-28 melanoma = tested on: SK-MEL-28 melanoma
# OVCAR-5 ovarian = tested on: OVCAR-5 ovarian
# PC-3 prostate = tested on: PC-3 prostate
# RXF 393 renal = tested on: RXF 393 renal
# SW-620 colon = tested on: SW-620 colon
# HOP-92 NSCLC = tested on: HOP-92 NSCLC
# HCT-15 colon = tested on: HCT-15 colon
# SNB-75 CNS = tested on: SNB-75 CNS
compound,measurement,setting,value
CCCCCCCCCCCCN1C(C)=CS/C1=C\C=C\c1scc(C)[n+]1CCCCCCCCCCCC,GI50,TK-10 renal,0.934 µM
same,TGI,TK-10 renal,3.9 µM
same,GI50,UACC-257 melanoma,1.72 µM
same,TGI,UACC-257 melanoma,5.68 µM
same,GI50,CAKI-1 renal,1.74 µM
same,TGI,CAKI-1 renal,12.8 µM
same,GI50,NCI-H226 lung,2.34 µM
same,TGI,NCI-H226 lung,> 100 µM
same,GI50,T-47D breast,0.817 µM
same,TGI,T-47D breast,6.77 µM
same,GI50,OVCAR-4 ovarian,1.43 µM
same,TGI,OVCAR-4 ovarian,13.2 µM
same,GI50,MOLT-4 leukemia,2.55 µM
same,TGI,MOLT-4 leukemia,> 100 µM
same,GI50,BT-549 breast,1.54 µM
same,TGI,BT-549 breast,7.17 µM
same,GI50,786-0 renal,2.17 µM
same,TGI,786-0 renal,7.37 µM
same,GI50,M14 melanoma,1.34 µM
same,TGI,M14 melanoma,4.61 µM
same,GI50,NCI/ADR-RES ovarian,3.06 µM
same,TGI,NCI/ADR-RES ovarian,34.4 µM
same,GI50,A498 renal,0.822 µM
same,TGI,A498 renal,4.09 µM
same,GI50,UACC-62 melanoma,1.1 µM
same,TGI,UACC-62 melanoma,3.41 µM
same,GI50,SR leukemia,1.12 µM
same,TGI,SR leukemia,> 100 µM
same,GI50,COLO 205 colon,1.26 µM
same,TGI,COLO 205 colon,4.13 µM
same,GI50,HS 578T breast,1.77 µM
same,TGI,HS 578T breast,6.62 µM
same,GI50,SF-539 CNS,2.02 µM
same,TGI,SF-539 CNS,8.69 µM
same,GI50,SF-268 CNS,1.98 µM
same,TGI,SF-268 CNS,5.7 µM
same,GI50,NCI-H522 lung,1.7 µM
same,TGI,NCI-H522 lung,5.11 µM
same,GI50,SN12C renal,1.65 µM
same,TGI,SN12C renal,4.2 µM
same,GI50,SNB-19 CNS,1.91 µM
same,TGI,SNB-19 CNS,10.3 µM
same,GI50,HCC-2998 colon,2.11 µM
same,TGI,HCC-2998 colon,11 µM
same,GI50,SF-295 CNS,1.53 µM
same,TGI,SF-295 CNS,5.35 µM
same,GI50,SK-OV-3 ovarian,2.74 µM
same,TGI,SK-OV-3 ovarian,22.9 µM
same,GI50,DU-145 prostate,2.38 µM
same,TGI,DU-145 prostate,10.5 µM
same,GI50,NCI-H460 lung,1.43 µM
same,TGI,NCI-H460 lung,3.51 µM
same,GI50,HOP-62 NSCLC,3.51 µM
same,TGI,HOP-62 NSCLC,28.7 µM
same,GI50,CCRF-CEM leukemia,1.98 µM
same,TGI,CCRF-CEM leukemia,> 100 µM
same,GI50,UO-31 renal,2.4 µM
same,TGI,UO-31 renal,12.4 µM
same,GI50,MDA-MB-435,1.21 µM
same,TGI,MDA-MB-435,3.68 µM
same,GI50,LOX IMVI melanoma,1.79 µM
same,TGI,LOX IMVI melanoma,5.96 µM
same,GI50,NCI-H23 lung,0.999 µM
same,TGI,NCI-H23 lung,4.99 µM
same,GI50,ACHN renal,1.84 µM
same,TGI,ACHN renal,10.4 µM
same,GI50,OVCAR-3 ovarian,1.24 µM
same,TGI,OVCAR-3 ovarian,3.69 µM
same,GI50,SK-MEL-28 melanoma,2.74 µM
same,TGI,SK-MEL-28 melanoma,17.3 µM
same,GI50,OVCAR-5 ovarian,2.3 µM
same,TGI,OVCAR-5 ovarian,9.43 µM
same,GI50,PC-3 prostate,1.03 µM
same,TGI,PC-3 prostate,3.46 µM
same,GI50,RXF 393 renal,1.42 µM
same,TGI,RXF 393 renal,5.29 µM
same,GI50,SW-620 colon,1.71 µM
same,TGI,SW-620 colon,7.19 µM
same,GI50,HOP-92 NSCLC,0.864 µM
same,TGI,HOP-92 NSCLC,3.77 µM
same,GI50,HCT-15 colon,2.32 µM
same,TGI,HCT-15 colon,21.6 µM
same,GI50,SNB-75 CNS,1.2 µM
same,TGI,SNB-75 CNS,4.96 µM
